Drawing on patent publication US20120225061A1, “TETRASUBSTITUTED CYCLOHEXYL COMPOUNDS AS KINASE INHIBITORS” (priority 2011, published 2012), this text covers IC50 and EC50 for 19 compounds.

Structures are written as SMILES.

The target of one assay is Pim2 kinase (Homo sapiens, UniProt Q9P1W9). As to the kind of experiment: Pim2 AlphaScreen assay (high ATP). In general terms: In Alpha technology, singlet oxygen from a donor bead excites a nearby acceptor bead.
Assay [1] concerns KMS11 (human myeloma cell line). As to the kind of experiment: Cell proliferation assay (CellTiter-Glo) in KMS11 cells. In kind it is cell-based. To be noted: KMS-11, 72 h, Table 5, 3 days, read-out: KMS11-luc EC50. As for the experimental part:
KMS11 (human myeloma cell line), were cultured in IMDM supplemented with 10% FBS, sodium pyruvate and antibiotics. Cells were plated in the same medium at a density of 2000 cells per well into 96 well tissue culture plates, with outside wells vacant, on the day of assay.
Test compounds supplied in DMSO were diluted into DMSO at 500 times the desired final concentrations before dilution into culture media to 2 times final concentrations.
After 3 days plates were equilibrated to room temperature and equal volume of CellTiter-Glow Reagent (Promega) was added to the culture wells. The plates were agitated briefly and luminescent signal was measured with luminometer.

For another assay, the target named is Pim3 kinase (Homo sapiens, UniProt Q86V86). As to the kind of experiment: Pim3 AlphaScreen assay (high ATP).
Another assay deals with Pim1 kinase (Homo sapiens, UniProt P11309). As to the kind of experiment: Pim1 AlphaScreen assay (high ATP).
Sequence of Pim1 kinase (P11309 whole entry): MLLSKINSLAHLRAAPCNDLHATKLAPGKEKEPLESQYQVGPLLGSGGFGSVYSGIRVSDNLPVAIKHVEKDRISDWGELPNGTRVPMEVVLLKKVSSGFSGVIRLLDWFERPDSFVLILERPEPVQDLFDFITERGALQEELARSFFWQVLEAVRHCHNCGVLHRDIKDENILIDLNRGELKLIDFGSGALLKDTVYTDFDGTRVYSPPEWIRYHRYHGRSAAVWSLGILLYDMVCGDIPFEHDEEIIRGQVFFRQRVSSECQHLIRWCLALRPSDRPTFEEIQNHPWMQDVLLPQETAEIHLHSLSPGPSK

Sequence of Pim2 kinase (Q9P1W9 whole entry): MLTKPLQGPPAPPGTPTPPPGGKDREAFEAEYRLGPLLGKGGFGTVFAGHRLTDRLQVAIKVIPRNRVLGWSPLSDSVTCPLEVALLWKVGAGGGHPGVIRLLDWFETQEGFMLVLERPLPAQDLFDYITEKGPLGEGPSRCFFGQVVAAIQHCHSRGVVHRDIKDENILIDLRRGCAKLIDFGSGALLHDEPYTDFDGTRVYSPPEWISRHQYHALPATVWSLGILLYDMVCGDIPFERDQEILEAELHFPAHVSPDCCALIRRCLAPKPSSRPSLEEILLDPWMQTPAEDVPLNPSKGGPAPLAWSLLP
Description for Pim2 kinase: The activity of Pim 1, Pim 2, & Pim 3 is measured using a homogeneous bead based system quantifying the amount of phosphorylated peptide substrate resulting from kinase-catalyzed phosphoryl transfer to a peptide substrate. Compounds to be tested are dissolved in 100% DMSO and directly distributed to a white 384-well plate at 0.25 μl per well. […] This is followed by the addition of 5 μl/well of Pim 1, Pim 2 or Pim 3 kinase in assay buffer (concentrations described below). Final assay concentrations (described below) are in 2.5% DMSO. The reactions are performed for ˜2 hours, then stopped by the addition of 10 μl of 0.75 μg/ml anti-phospho Ser/Thr antibody (Cell Signaling), 10 μg/ml Protein A AlphaScreen beads (Perkin Elmer), and 10 μg/ml streptavidin coated AlphaScreen beads in stop/detection buffer (50 mM EDTA, 95 mM Tris, pH=7.5, 0.01% Tween-20). The stopped reactions are incubated overnight in the dark. The phosphorylated peptide is detected via an oxygen anion initiated chemiluminescence/fluorescence cascade using the Envision plate reader (Perkin Elmer).

The term IC50 denotes the concentration that gives 50% inhibition. Read a low IC50 as inhibition by little substance. One may read the EC50 as the midpoint of the concentration-response curve. For `COCc1cc(F)c(-c2nc(C(=O)Nc3cnccc3[C@H]3C[C@@H](N)[C@](C)(O)[C@@H](C)C3)ccc2F)c(F)c1` [Example 4, N-(4-((1R,3R,4R,5S)-3-amino-4-hydroxy-4,5-dimethylcyclohexyl)pyridin-3-yl)-6-(2,6-difluoro-4-(methoxymethyl)phenyl)-5-fluoropicolinamide], the figures for the IC50 against Pim2 kinase, on Pim3 kinase and against Pim1 kinase were 4.33 nM, 2.43 nM and 0.09 nM, respectively. In addition, in assay [1], the EC50 stood at 34 nM.

On to `COCCOc1ccc(F)c(-c2nc(C(=O)Nc3cnccc3[C@H]3C[C@@H](N)[C@](C)(O)[C@@H](C)C3)ccc2F)c1F` [Example 6, N-(4-((1R,3R,4R,5S)-3-amino-4-hydroxy-4,5-dimethylcyclohexyl)pyridin-3-yl)-6-(2,6-difluoro-3-(2-methoxyethoxy)phenyl)-5-fluoropicolinamide], for which the half-inhibitory concentration (IC50) against Pim2 kinase was determined as 24.9 nM; against Pim3 kinase it was 2.4 nM; on Pim1 kinase it was 0.14 nM. In assay [1], the half-maximal effective concentration (EC50) was 202 nM.

Regarding `COCCOc1cc(F)c(-c2nc(C(=O)Nc3cnccc3[C@H]3C[C@@H](N)[C@](C)(O)[C@@H](C)C3)ccc2F)c(F)c1` [Example 7, N-(4-((1R,3R,4R,5S)-3-amino-4-hydroxy-4,5-dimethylcyclohexyl)pyridin-3-yl)-6-(2,6-difluoro-4-(2-methoxyethoxy)phenyl)-5-fluoropicolinamide], the 50% inhibitory concentration (IC50) is 6.31 nM on Pim2 kinase, 2.09 nM at Pim3 kinase and 0.08 nM at Pim1 kinase. Moreover, in assay [1], the EC50 stood at 57 nM.

Regarding `CSc1cc(F)c(-c2nc(C(=O)Nc3cnccc3[C@H]3C[C@@H](N)[C@](C)(O)[C@@H](C)C3)ccc2F)c(F)c1` [Example 8, N-(4-((1R,3R,4R,5S)-3-amino-4-hydroxy-4,5-dimethylcyclohexyl)pyridin-3-yl)-6-(2,6-difluoro-4-(methylthio)phenyl)-5-fluoropicolinamide], the half-inhibitory concentration (IC50) against Pim2 kinase turned out to be 6.98 nM; on Pim3 kinase, 2.04 nM; at Pim1 kinase, 0.08 nM. The EC50 in assay [1] came to 234 nM.

For `C[C@H]1C[C@@H](c2ccncc2NC(=O)c2ccc(F)c(-c3c(F)cc(S(C)(=O)=O)cc3F)n2)C[C@@H](O)[C@]1(C)O` [Example 9, 6-(2,6-difluoro-4-(methylsulfonyl)phenyl)-N-(4-((1R,3R,4R,5S)-3,4-dihydroxy-4,5-dimethylcyclohexyl)pyridin-3-yl)-5-fluoropicolinamide], the IC50 on Pim2 kinase turned out to be 1010 nM; at Pim3 kinase, 1620 nM; at Pim1 kinase, 8.54 nM. For the same compound, the EC50 in assay [1] was found to be 4700 nM.

Consider `C[C@@H]1C[C@H](c2ccncc2NC(=O)c2ccc(F)c(-c3c(F)cc(S(C)(=O)=O)cc3F)n2)C[C@H](O)[C@@]1(C)O` [Example 10, 6-(2,6-difluoro-4-(methylsulfonyl)phenyl)-N-(4-((1S,3S,4S,5R)-3,4-dihydroxy-4,5-dimethylcyclohexyl)pyridin-3-yl)-5-fluoropicolinamide], for which the IC50 at Pim2 kinase came to 7110 nM; on Pim3 kinase, 4150 nM; against Pim1 kinase, 14.6 nM. For the same compound, in assay [1], the concentration giving a half-maximal response (EC50) is above 10000 nM.

With `Cc1cc(F)c(-c2nc(C(=O)Nc3cnccc3[C@H]3C[C@@H](N)[C@](C)(O)[C@@H](C)C3)ccc2F)c(F)c1` [Example 13, N-(4-((1R,3R,4R,5S)-3-amino-4-hydroxy-4,5-dimethylcyclohexyl)pyridin-3-yl)-6-(2,6-difluoro-4-methylphenyl)-5-fluoropicolinamide], the values for the concentration for half-maximal inhibition (IC50) on Pim2 kinase, on Pim3 kinase and on Pim1 kinase were 4.33 nM, 1.16 nM and 0.07 nM, respectively. Besides, the concentration for a half-maximal effect (EC50) in assay [1] came out at 42 nM.

`Cc1cc(F)c(-c2nc(C(=O)Nc3cnccc3[C@H]3C[C@@H](C)[C@](C)(O)[C@@H](N)C3)ccc2F)c(F)c1` [Example 14, N-(4-((1S,3S,4S,5R)-3-amino-4-hydroxy-4,5-dimethyl-cyclohexyl)pyridin-3-yl)-6-(2,6-difluoro-4-methylphenyl)-5-fluoropicolinamide]: the results for the concentration for half-maximal inhibition (IC50) on Pim2 kinase, at Pim3 kinase and against Pim1 kinase were 776 nM, 231 nM and 13.7 nM, respectively. Also, in assay [1], the EC50 is 5040 nM.

Consider `C[C@H]1C[C@@H](c2ccncc2NC(=O)c2nc(-c3c(F)cccc3F)ccc2N)C[C@@H](O)[C@@]1(O)CF` [Example 18, 3-amino-6-(2,6-difluorophenyl)-N-(4-((1R,3R,4R,5S)-4-(fluoromethyl)-3,4-dihydroxy-5-methylcyclohexyl)pyridin-3-yl) picolinamide], for which the IC50 on Pim2 kinase came out at 47 nM; against Pim3 kinase, 10.2 nM; on Pim1 kinase it was 0.67 nM. Also, the EC50 in assay [1] is 714 nM.

Consider `COc1cc(F)c(-c2nc(C(=O)Nc3cnccc3[C@H]3C[C@@H](O)[C@](C)(O)[C@@H](C)C3)ccc2F)c(F)c1` [Example 22, 6-(2,6-difluoro-4-methoxyphenyl)-N-(4-((1R,3R,4R,5S)-3,4-dihydroxy-4,5-dimethylcyclohexyl)pyridin-3-yl)-5-fluoropicolinamide], for which the figures for the IC50 against Pim2 kinase, on Pim3 kinase and against Pim1 kinase were 201 nM, 39.5 nM and 0.85 nM, respectively. Moreover, the concentration giving a half-maximal response (EC50) in assay [1] is 382 nM.

Turning to `CC(C)Oc1cc(F)c(-c2nc(C(=O)Nc3cnccc3[C@H]3C[C@@H](N)[C@](C)(O)[C@@H](C)C3)ccc2F)c(F)c1` [Example 64, N-(4-((1R,3R,4R,5S)-3-amino-4-hydroxy-4,5-dimethylcyclohexyl)pyridin-3-yl)-6-(2,6-difluoro-4-isopropoxyphenyl)-5-fluoropicolinamide], the half-maximal inhibitory concentration (IC50) worked out at 1.54 nM against Pim2 kinase, 0.54 nM against Pim3 kinase and 0.02 nM against Pim1 kinase. Besides, the concentration for a half-maximal effect (EC50) in assay [1] turned out to be 165 nM.

Take `C[C@H]1C[C@@H](c2ccncc2NC(=O)c2ccc(F)c(-c3c(F)cc(OC4CCOCC4)cc3F)n2)C[C@@H](N)[C@]1(C)O` [Example 65, N-(4-((1R,3R,4R,5S)-3-amino-4-hydroxy-4,5-dimethylcyclohexyl)pyridin-3-yl)-6-(2,6-difluoro-4-(tetrahydro-2H-pyran-4-yloxy)phenyl)-5-fluoropicolinamide]: the figures for the IC50 against Pim2 kinase, against Pim3 kinase and on Pim1 kinase were 2.14 nM, 0.73 nM and 0.03 nM, respectively. For the same compound, the concentration giving a half-maximal response (EC50) in assay [1] was 38 nM.

With `C[C@H]1C[C@@H](c2ccncc2NC(=O)c2ccc(F)c(-c3c(F)cc(C(C)(C)O)cc3F)n2)C[C@@H](N)[C@]1(C)O` [Example 66], the IC50 against Pim2 kinase was 2.92 nM; against Pim3 kinase, 1.64 nM; on Pim1 kinase, 0.03 nM. The concentration for a half-maximal effect (EC50) in assay [1] was 13 nM.

As to `C[C@H]1C[C@@H](c2ccncc2NC(=O)c2ccc(F)c(-c3c(F)cc(C4CC4)cc3F)n2)C[C@@H](N)[C@]1(C)O` [Example 67, N-(4-((1R,3R,4R,5S)-3-amino-4-hydroxy-4,5-dimethylcyclohexyl)pyridin-3-yl)-6-(4-cyclopropyl-2,6-difluorophenyl)-5-fluoropicolinamide], the half-inhibitory concentration (IC50) at Pim2 kinase was 2.5 nM; on Pim3 kinase it was 0.96 nM; at Pim1 kinase, 0.01 nM. Also, in assay [1], the EC50 was determined as 127 nM.

On to `C[C@H]1C[C@@H](c2ccncc2NC(=O)c2ccc(F)c(-c3c(F)cc(C4(F)COC4)cc3F)n2)C[C@@H](N)[C@]1(C)O` [Example 69, N-(4-((1R,3R,4R,5S)-3-amino-4-hydroxy-4,5-dimethylcyclohexyl)pyridin-3-yl)-6-(2,6-difluoro-4-(3-fluorooxetan-3-yl)phenyl)-5-fluoropicolinamide], for which the IC50 at Pim2 kinase worked out at 6.42 nM; at Pim3 kinase, 4.2 nM; on Pim1 kinase it was 0.09 nM. For the same compound, the EC50 in assay [1] is 423 nM.

For the compound `C[C@H]1C[C@@H](c2ccncc2NC(=O)c2ccc(F)c(-c3c(F)cc(C4(F)CCOCC4)cc3F)n2)C[C@@H](N)[C@]1(C)O` [Example 70, N-(4-((1R,3R,4R,5S)-3-amino-4-hydroxy-4,5-dimethylcyclohexyl)pyridin-3-yl)-6-(2,6-difluoro-4-(4-fluorotetrahydro-2H-pyran-4-yl)phenyl)-5-fluoropicolinamide], the results for the IC50 on Pim2 kinase, against Pim3 kinase and on Pim1 kinase were 2.21 nM, 1.73 nM and 0.04 nM, respectively. Moreover, the concentration giving a half-maximal response (EC50) in assay [1] came to 136 nM.

For the compound `C[C@H]1C[C@@H](c2ccncc2NC(=O)c2ccc(F)c(-c3c(F)cc(C4CCOCC4)cc3F)n2)C[C@@H](N)[C@]1(C)O` [Example 71, N-(4-((1R,3R,4R,5S)-3-amino-4-hydroxy-4,5-dimethylcyclohexyl)pyridin-3-yl)-6-(2,6-difluoro-4-(tetrahydro-2H-pyran-4-yl)phenyl)-5-fluoropicolinamide], the IC50 at Pim2 kinase turned out to be 1.47 nM; at Pim3 kinase, 0.72 nM; on Pim1 kinase it was 0.02 nM. The EC50 in assay [1] was 81 nM.

For the compound `C[C@H]1C[C@@H](c2ccncc2NC(=O)c2ccc(F)c(-c3c(F)cc(C(C)(C)O)cc3F)n2)C[C@@H](O)[C@]1(C)O` [Example 73, 6-(2,6-difluoro-4-(2-hydroxypropan-2-yl)phenyl)-N-(4-((1R,3R,4R,5S)-3,4-dihydroxy-4,5-dimethylcyclohexyl)pyridin-3-yl)-5-fluoropicolinamide], the IC50 against Pim2 kinase came out at 156 nM; at Pim3 kinase, 63.1 nM; on Pim1 kinase, 0.42 nM. In assay [1], the EC50 is 189 nM.

Regarding `C[C@@H]1C[C@H](c2ccncc2NC(=O)c2ccc(F)c(-c3c(F)cc(C(C)(C)O)cc3F)n2)C[C@H](O)[C@@]1(C)O` [Example 74, 6-(2,6-difluoro-4-(2-hydroxypropan-2-yl)phenyl)-N-(4-((1S,3S,4S,5R)-3,4-dihydroxy-4,5-dimethylcyclohexyl)pyridin-3-yl)-5-fluoropicolinamide], the values for the IC50 at Pim2 kinase, on Pim3 kinase and against Pim1 kinase were 6340 nM, 2870 nM and 18.8 nM, respectively. In assay [1], the EC50 worked out at 3470 nM.
